Results as given in PubChem BioAssay AID2060893 (Molecular Pharmacology Branch, DTP, NCI, 2025).

Tested on: K86415-001-R-J1-PDC complex spheroids, viability
Test: Anticancer human tumor K86415-001-R-J1-PDC patient-derived lung adenocarcinoma cell line growth inhibition [RAS]
Settings: for IC50: curve of first compound; for viability, T/C: stronger effect = lower value
Summary of the method: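 Multi-cell-type spheroids: tumor cells plus HUVEC endothelial cells and mesenchymal stem cells. RAS-pathway inhibitors were combined with targeted agents, each dosed in half-log steps down from clinical Cmax, or from 10 microM when Cmax was unknown.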
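Note: spheroids exposed to agents for seven days before readout.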

CCC(CC)c1cc(NC2CCC(N)C2)n2nccc2n1 (configuration not stated) + C#Cc1c(F)ccc2cc(O)cc(-c3ncc4c(N5CC6CCC(C5)N6)nc(OCC56CCCN5CC(F)C6)nc4c3F)c12
IC50 (second compound 0.0316 µM): 1800 nM | IC50 (second compound 0.1 µM): 1780 nM | IC50 (second compound 0.316 µM): 1710 nM | IC50 (second compound 1 µM): 1620 nM | IC50 (second compound 3.16 µM): 1050 nM | IC50 (second compound 10 µM): < 31.6 nM | viability, T/C (second compound 0.0316 µM, first compound 0.0316 µM): 108% | viability, T/C (second compound 0.0316 µM, first compound 0.1 µM): 126% | viability, T/C (second compound 0.0316 µM, first compound 0.316 µM): 109% | viability, T/C (second compound 0.0316 µM, first compound 1 µM): 98.1% | viability, T/C (second compound 0.0316 µM, first compound 3.16 µM): 3.47% | viability, T/C (second compound 0.0316 µM, first compound 10 µM): 3.41% | viability, T/C (second compound 0.1 µM, first compound 0.0316 µM): 99.1% | viability, T/C (second compound 0.1 µM, first compound 0.1 µM): 98.2% | viability, T/C (second compound 0.1 µM, first compound 0.316 µM): 109% | viability, T/C (second compound 0.1 µM, first compound 1 µM): 97.4% | viability, T/C (second compound 0.1 µM, first compound 3.16 µM): 2.92% | viability, T/C (second compound 0.1 µM, first compound 10 µM): 2.14% | viability, T/C (second compound 0.316 µM, first compound 0.0316 µM): 97.1% | viability, T/C (second compound 0.316 µM, first compound 0.1 µM): 103% | viability, T/C (second compound 0.316 µM, first compound 0.316 µM): 107% | viability, T/C (second compound 0.316 µM, first compound 1 µM): 91.1% | viability, T/C (second compound 0.316 µM, first compound 3.16 µM): 3.17% | viability, T/C (second compound 0.316 µM, first compound 10 µM): 3.38% | viability, T/C (second compound 1 µM, first compound 0.0316 µM): 74.2% | viability, T/C (second compound 1 µM, first compound 0.1 µM): 83.7% | viability, T/C (second compound 1 µM, first compound 0.316 µM): 85.7% | viability, T/C (second compound 1 µM, first compound 1 µM): 90.2% | viability, T/C (second compound 1 µM, first compound 3.16 µM): 3.62% | viability, T/C (second compound 1 µM, first compound 10 µM): 2.6% | viability, T/C (second compound 3.16 µM, first compound 0.0316 µM): 43.4% | viability, T/C (second compound 3.16 µM, first compound 0.1 µM): 46.1% | viability, T/C (second compound 3.16 µM, first compound 0.316 µM): 50.1% | viability, T/C (second compound 3.16 µM, first compound 1 µM): 68.2% | viability, T/C (second compound 3.16 µM, first compound 3.16 µM): 3.28% | viability, T/C (second compound 3.16 µM, first compound 10 µM): 2.71% | viability, T/C (second compound 10 µM, first compound 0.0316 µM): 15.4% | viability, T/C (second compound 10 µM, first compound 0.1 µM): 18.1% | viability, T/C (second compound 10 µM, first compound 0.316 µM): 24.3% | viability, T/C (second compound 10 µM, first compound 1 µM): 33.3% | viability, T/C (second compound 10 µM, first compound 3.16 µM): 2.78% | viability, T/C (second compound 10 µM, first compound 10 µM): 2.37%
